Results taken from patent US10689354B2, “Aminoazole derivative” (Teijin Pharma Limited, priority 2015, dated 2020).

target: T1, androgen receptor (AR-LBD) (Rattus norvegicus, UniProt P15207); assay: Evaluation of androgen receptor affinity (PolarScreen Androgen Receptor Competitor Assay Kit, Red; fluorescence polarization); details: 22° C. for 5 hours, relative to binding rate of 1 μM DHT, read-out: AR affinity (pEC50) (converted)
T1 construct: 5 μL of 2×AR-LBD/Fluoromone AL Red Complex contained in the kit; purchased Invitrogen
T1 sequence (P15207 651-882 limits assumed): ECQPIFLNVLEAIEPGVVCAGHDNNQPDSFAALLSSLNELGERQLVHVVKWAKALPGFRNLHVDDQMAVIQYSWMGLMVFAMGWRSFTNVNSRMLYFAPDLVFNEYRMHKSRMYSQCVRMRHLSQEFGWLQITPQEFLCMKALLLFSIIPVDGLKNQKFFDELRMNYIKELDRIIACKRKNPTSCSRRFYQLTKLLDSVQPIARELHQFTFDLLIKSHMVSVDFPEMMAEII
Experimental: Evaluation of an Androgen Receptor Affinity
To examine the interaction of a compound with an androgen receptor, evaluation was carried out in accordance with the following procedure using PolarScreen™ Androgen Receptor Competitor Assay Kit, Red (Invitrogen). To 2 wells each of a 384 well black plate was added 5 μL of the compound solution. To each well was added 5 μL of 2×AR-LBD/Fluoromone AL Red Complex contained in the kit and the samples were reacted at 22° C. for 5 hours. After 5 hours of the reaction, fluorescence polarization was measured and the affinity was evaluated. The affinity of the compound was determined by comparing to the binding rate of 1 μM of dihydrotestosterone (DHT), and quantified the logarithm value (pEC50) of reciprocal value of the effective concentration of the compound which is equal to 50% of the binding rate by applying a 4 parameter goodness-of-fit calculation.

SMILES | EC50 [µM]
Cc1sc(N(C[Si](C)(C)c2ccccc2)c2ccc(C#N)cc2)nc1C(=O)NS(C)(=O)=O [Compound 477, 2-[4-cyano-N-[[dimethyl(phenyl)silyl]methyl]anilino]-5-methyl-N-methylsulfonyl-thiazole-4-carboxamide] | > 2
Cc1sc(N(Cc2ccccc2C(F)F)c2ccc(C#N)cc2)nc1C(=O)NS(C)(=O)=O [Compound 93, 2-[4-cyano-N-[[2-(difluoromethyl)phenyl]methyl]anilino]-5-methyl-N-methylsulfonyl-thiazole-4-carboxamide] | 0.631
Cc1sc(N(Cc2ccccc2)c2ccccc2OC(F)(F)F)nc1C(=O)NS(C)(=O)=O [Compound 27, 2-[N-benzyl-2-(trifluoromethoxy)anilino]-5-methyl-N-methylsulfonyl-thiazole-4-carboxamide] | > 2
Cc1sc(N(Cc2ccccc2)c2ccc(C#N)cc2Br)nc1C(=O)NS(C)(=O)=O [Compound 142, 2-(N-benzyl-2-bromo-4-cyano-anilino)-5-methyl-N-methylsulfonyl-thiazole-4-carboxamide] | 0.631
Cc1sc(N(CCc2cccc(OC(F)(F)F)c2)Cc2ccccc2)nc1C(=O)NS(C)(=O)=O [Compound 332, 2-[benzyl-[2-[3-(trifluoromethoxy)phenyl]ethyl]amino]-5-methyl-N-methylsulfonyl-thiazole-4-carboxamide] | 0.398
Cc1ncsc1CCN(c1ccc(C#N)cc1)c1nc(C(=O)NS(C)(=O)=O)c(C)s1 [Compound 136, 2-[4-cyano-N-[2-(4-methylthiazol-5-yl)ethyl]anilino]-5-methyl-N-methylsulfonyl-thiazole-4-carboxamide] | > 2
Cc1sc(N(Cc2ccc(OCCCN3CCCC3=O)cc2)c2ccc(C#N)cc2)nc1C(=O)NS(C)(=O)=O [Compound 578, 2-[4-cyano-N-[[4-[3-(2-oxopyrrolidin-1-yl)propoxy]phenyl]methyl]anilino]-5-methyl-N-methylsulfonyl-thiazole-4-carboxamide] | 0.794
COCCOc1ccc(N(Cc2ccccc2)c2nc(C(=O)NS(C)(=O)=O)c(C)s2)cc1 [Compound 22, 2-[N-benzyl-4-(2-methoxyethoxy)anilino]-5-methyl-N-methylsulfonyl-thiazole-4-carboxamide] | 0.501
CO[C@@H]1CCC[C@H](CN(c2ccc(C#N)cc2)c2nc(C(=O)NS(C)(=O)=O)c(C)s2)C1 (racemic) [Compound 349, 2-[4-cyano-N-[[cis-3-methoxycyclohexyl]methyl]anilino]-5-methyl-N-methylsulfonyl-thiazole-4-carboxamide] | 0.501
Cc1sc(N(Cc2ccc(OCCN3CCCC3=O)cc2)c2ccc(C#N)cc2)nc1C(=O)NS(C)(=O)=O [Compound 575, 2-[4-cyano-N-[[4-[2-(2-oxopyrrolidin-1-yl)ethoxy]phenyl]methyl]anilino]-5-methyl-N-methylsulfonyl-thiazole-4-carboxamide] | 0.398
Cc1sc(N(CC(=O)Nc2ccccc2)c2ccc(C#N)cc2)nc1C(=O)NS(C)(=O)=O [Compound 425, 2-(N-(2-anilino-2-oxo-ethyl)-4-cyano-anilino)-5-methyl-N-methylsulfonyl-thiazole-4-carboxamide] | 1.26
Cc1sc(N(Cc2ccccc2)c2ccc(C#N)cc2)nc1C(=O)NS(=O)(=O)c1cn(C)cn1 [Compound 394, 2-(N-benzyl-4-cyano-anilino)-5-methyl-N-(1-methylimidazol-4-yl)sulfonyl-thiazole-4-carboxamide] | > 2
Cc1sc(N(CC2CCC(N(C)C)CC2)c2ccc(C#N)cc2)nc1C(=O)NS(C)(=O)=O (stereo not drawn) [Compound 352, 2-[4-cyano-N-[[4-(dimethylamino)cyclohexyl]methyl]anilino]-5-methyl-N-methylsulfonyl-thiazole-4-carboxamide] | > 2
Cc1sc(N(Cc2ccccc2)CC2CCCCC2)nc1C(=O)NS(C)(=O)=O [Compound 668, 2-[benzyl(cyclohexylmethyl)amino]-5-methyl-N-methylsulfonyl-thiazole-4-carboxamide] | > 2
Cc1sc(N(Cc2ccccc2)c2ccc(OCc3ccccc3)cc2)nc1C(=O)NS(C)(=O)=O [Compound 38, 2-(N-benzyl-4-benzyloxy-anilino)-5-methyl-N-methylsulfonyl-thiazole-4-carboxamide] | > 2
Cc1sc(N(Cc2nccs2)c2ccc(C#N)cc2)nc1C(=O)NS(C)(=O)=O [Compound 392, 2-[4-cyano-N-(thiazol-2-ylmethyl)anilino]-5-methyl-N-methylsulfonyl-thiazole-4-carboxamide] | > 2
COCC(CN(c1ccc(C#N)cc1)c1nc(C(=O)NS(C)(=O)=O)c(C)s1)c1ccccc1 (stereo not drawn) [Compound 377, 2-(4-cyano-N-(3-methoxy-2-phenyl-propyl)anilino)-5-methyl-N-methylsulfonyl-thiazole-4-carboxamide] | > 2
Cc1sc(N(Cc2cccnc2)c2ccc(C#N)cc2)nc1C(=O)NS(C)(=O)=O [Compound 43, 2-[4-cyano-N-(3-pyridylmethyl)anilino]-5-methyl-N-methylsulfonyl-thiazole-4-carboxamide] | > 2
Cc1sc(N(Cc2ccc(OCC(=O)N3CCOCC3)cc2)c2ccc(C#N)cc2)nc1C(=O)NS(C)(=O)=O [Compound 573, 2-[4-cyano-N-[[4-(2-morpholino-2-oxo-ethoxy)phenyl]methyl]anilino]-5-methyl-N-methylsulfonyl-thiazole-4-carboxamide] | 1.26
Cc1sc(N(CCc2ccccn2)c2ccc(C#N)cc2)nc1C(=O)NS(C)(=O)=O [Compound 130, 2-[4-cyano-N-[2-(2-pyridyl)ethyl]anilino]-5-methyl-N-methylsulfonyl-thiazole-4-carboxamide] | > 2
Cc1cc(CN(c2ccc(C#N)cc2)c2nc(C(=O)NS(C)(=O)=O)c(C)s2)no1 [Compound 445, 2-[4-cyano-N-[(5-methylisoxazol-3-yl)methyl]anilino]-5-methyl-N-methylsulfonyl-thiazole-4-carboxamide] | 0.631
C=CCCN(c1ccc(C#N)cc1)c1nc(C(=O)NS(C)(=O)=O)c(C)s1 [Compound 448, 2-(N-but-3-enyl-4-cyano-anilino)-5-methyl-N-methylsulfonyl-thiazole-4-carboxamide] | 1.26

Results, then the compound that gave them:

EC50 [µM] | SMILES
> 2 | Cc1ncsc1CCN(Cc1ccccc1)c1nc(C(=O)NS(C)(=O)=O)c(C)s1 [Example 311, 2-[benzyl-[2-(4-methylthiazol-5-yl)ethyl]amino]-5-methyl-N-methylsulfonyl-thiazole-4-carboxamide]
> 2 | Cc1sc(N(Cc2ccccc2)Cc2ccncc2)nc1C(=O)NS(C)(=O)=O [Example 296, 2-[benzyl(4-pyridylmethyl)amino]-5-methyl-N-methylsulfonyl-thiazole-4-carboxamide]
> 2 | Cc1sc(N(CCC(F)(F)F)Cc2ccccc2)nc1C(=O)NS(C)(=O)=O [Compound 711, 2-[benzyl(3,3,3-trifluoropropyl)amino]-5-methyl-N-methylsulfonyl-thiazole-4-carboxamide]
1.26 | Cc1sc(N(Cc2ccccc2)c2ccc(S(C)(=O)=O)cc2)nc1C(=O)NS(C)(=O)=O [Example 261, 2-(N-benzyl-4-methylsulfonyl-anilino)-5-methyl-N-methylsulfonyl-thiazole-4-carboxamide]
> 2 | Cc1sc(N(Cc2ccccc2)c2cc3ccccc3cn2)nc1C(=O)NS(C)(=O)=O [Compound 745, 2-[benzyl(3-isoquinolyl)amino]-5-methyl-N-methylsulfonyl-thiazole-4-carboxamide]
> 2 | Cc1sc(N(Cc2ccccc2)Cc2ccccc2)nc1C(=O)NS(C)(=O)=O [Example 288, 2-(dibenzylamino)-5-methyl-N-methylsulfonyl-thiazole-4-carboxamide]
> 2 | Cc1cc(C)n(CCN(Cc2ccccc2)c2nc(C(=O)NS(C)(=O)=O)c(C)s2)n1 [Compound 689, 2-[benzyl-[2-(3,5-dimethylpyrazol-1-yl)ethyl]amino]-5-methyl-N-methylsulfonyl-thiazole-4-carboxamide]
> 2 | Cc1sc(N(CCC(C)(C)C)Cc2ccccc2)nc1C(=O)NS(C)(=O)=O [Compound 686, 2-[benzyl(3,3-dimethylbutyl)amino]-5-methyl-N-methylsulfonyl-thiazole-4-carboxamide]
> 2 | Cc1sc(N(Cc2ccccc2)Cc2ccc(C#N)cc2)nc1C(=O)NS(C)(=O)=O [Example 289, 2-[benzyl-[(4-cyanophenyl)methyl]amino]-5-methyl-N-methylsulfonyl-thiazole-4-carboxamide]
> 2 | Cc1sc(N(Cc2ccccc2)C(C)Cc2ccccc2)nc1C(=O)NS(C)(=O)=O (stereo not drawn) [Compound 674, 2-[benzyl-(1-methyl-2-phenyl-ethyl)amino]-5-methyl-N-methylsulfonyl-thiazole-4-carboxamide]
> 2 | Cc1sc(N(CCc2ccc(C#N)cc2)CC2CCCCC2)nc1C(=O)NS(=O)(=O)C1CC1 [Compound 718, 2-[2-(4-cyanophenyl)ethyl-(cyclohexylmethyl)amino]-N-cyclopropylsulfonyl-5-methyl-thiazole-4-carboxamide]
